Results on 1 molecule are retold here after patent publication US7375083B2, “Pharmaceutical compositions for prevention of overdose or abuse” (Shire LLC, priority 2003, dated 2008).

For orientation: Tmax means the time at which the peak concentration occurs. One may read the AUC(0-t) as exposure summed from dosing to a finite time, without extrapolation to infinity. High values mean more exposure, low ones less exposure. As a reminder, the Cmax is the peak of the concentration-time curve. Broadly, the AUC(0-inf) is the area under the concentration-time curve extrapolated to infinity. Higher therefore signals high exposure.

The data set can be described thus: Oral bioavailability in rats at escalating doses, LC/MS/MS. As to conditions: rat.
Setting [1] is: male, Sprague-Dawley, in vivo, po, 3 mg/kg.
Where [2] appears, read: male, Sprague-Dawley, in vivo, po, 6 mg/kg.
The mark [3] stands for this setting: male, Sprague-Dawley, in vivo, po, 12 mg/kg.
The mark [4] stands for this setting: male, Sprague-Dawley, in vivo, po, 60 mg/kg.

SMILES strings stand for the structures.

As for `CC(Cc1ccccc1)NC(=O)C(N)CCCCN` [L-lysine-d-amphetamine, 2,6-diaminohexanoic acid-(1-methyl-2-phenylethyl)-amide], the Tmax (male, Sprague-Dawley, in vivo, po) is 0.25 to 3 h; the Tmax under setting [1] was found to be 1.5 h; the Tmax under setting [2] stood at 0.25 h; the Tmax under setting [3] came out at 1 h; the Tmax under setting [4] was found to be 3 h; the Tmax (male, Sprague-Dawley, in vivo, po, […]) was determined as 0.25 h. For the same molecule, the AUC(0-t) under setting [1] was found to be 330 ng·h/mL, the AUC(0-t) under setting [2] is 1160 ng·h/mL, the AUC(0-t) under setting [3] turned out to be 4240 ng·h/mL and the AUC(0-t) under setting [4] was 8230 ng·h/mL. Also, the Cmax is 135 ng/mL under setting [1], 677 ng/mL under setting [2], 856 ng/mL under setting [3] and 1870 ng/mL under setting [4]. For the same molecule, the AUC(0-inf) under setting [3] came to 4510 ng·h/mL. Also, the “Cmax of d-amphetamine compared to d-amphetamine sulfate” value (oral, 1.5 to 6 mg/kg) is “reduced by approximately half”.
